Here are results for 2 compounds from patent US20110245192A1, “NEW ACTIVATORS FOR TREATING AND/OR PREVENTING DISEASES OR MEDICAL CONDITIONS WHICH BENEFIT FROM AN INCREASED TRANSPORT OF HYALURONAN ACROSS A LIPID BILAYER” (priority 2008, published 2011).

The assay concerns hyaluronan transport/export in fibroblasts. Description: Assay for hyaluronan transport/export activators in fibroblast cell culture (hyaluronan in culture medium by ELISA). In kind it is cell-based. To be noted: 2 days at 37° C. As for the experimental part: Compound 89 activates 4,7fold, while compound 101 activates 2,4fold. The “activatory capability” as described herein is expressed as the ratio of hyaluronan exported in the presence and absence of the compound. Methods to determine the hyaluronan transport are disclosed herein, and are also disclosed in great detail in WO2005/013947.
Trypsinised fibroblasts were suspended in Dulbeccos medium at 10^5 cells/ml and 100 μl aliquots were transferred to a 96 well microtiter plate. The first row received 200 μl of the suspension and 20 μl of the activators of the invention dissolved in phosphate buffered saline at concentrations of 4 mM. A serial dilution of the activators was established by transfer of 100 μl aliquots from the first row to the following rows. All experiments were performed in duplicates. […] The cells were incubated for 2 days at 37° C. and aliquots (5 and 20 μl) of the culture medium were used for measurement of the hyaluronan concentration in the cell culture medium by an ELISA [125]. […] The adsorption was read at 490 nm. The concentrations in the samples were calculated from a logarithmic regression curve of the hyaluronan standard solutions. […]
In general terms: In an ELISA, binding on a coated surface is turned into a signal by an enzyme label.

On to `CC(=O)Nc1c(O)cc(O)cc1Oc1ccc(N)cc1C(=O)O` [Compound 89], for which the “activatory capability: ratio of hyaluronan exported in the presence and absence of the compound” value is listed as 4,7 fold. `CC(=O)Nc1c(O)cccc1Oc1ccc(N)cc1C(=O)O` [Compound 101]: the “activatory capability: ratio of hyaluronan exported in the presence and absence of the compound” value is 2,4 fold.
